Data reported in PubChem BioAssay AID248 (DTP/NCI, 2004).
Several values for one entry are separate records, joined by “and”; a condition that tells them apart may be missing. Identical values can stand only once. Inconclusive results and toxic doses are left out.

System: L1210 leukemia ip in BDF1 mice, survival T/C
Experiment: NCI In Vivo Anticancer Drug Screen. Data for tumor model L1210 Leukemia (intraperitoneal) in B6D2F1 (BDF1) mice
Conditions: endpoint: mean survival time, higher = longer survival
Procedure, shortened: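 Mice bearing the transplanted tumor received compound or vehicle. Survival of the treated group was divided by that of the vehicle-treated control group to give the ratio.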

[1] = dose: 100.0 mg/kg/injection, schedule: Q01DX009 (ip), vehicle: saline
[2] = dose: 100.0 mg/kg/injection, schedule: Q04DX003 (ip), vehicle: saline
[3] = dose: 200.0 mg/kg/injection, schedule: Q04DX003 (ip), vehicle: saline
[4] = dose: 100.0 mg/kg/injection, schedule: Q04DX003 (ip), vehicle: saline with Tween-80
[5] = dose: 200.0 mg/kg/injection, schedule: Q04DX003 (ip), vehicle: saline with Tween-80
[6] = dose: 400.0 mg/kg/injection, schedule: Q04DX003 (ip), vehicle: saline with Tween-80
[7] = dose: 100.0 mg/kg/injection, schedule: Q04DX003 (ip), vehicle: Klucel (hydroxypropylcellulose) (HPC)
[8] = dose: 200.0 mg/kg/injection, schedule: Q04DX003 (ip), vehicle: Klucel (hydroxypropylcellulose) (HPC)
[9] = dose: 100.0 mg/kg/injection, schedule: Q01DX009 (ip), vehicle: saline with Tween-80
[10] = dose: 200.0 mg/kg/injection, schedule: Q01DX009 (ip), vehicle: saline with Tween-80
[11] = dose: 400.0 mg/kg/injection, schedule: Q01DX009 (ip), vehicle: saline with Tween-80
[12] = dose: 100.0 mg/kg/injection, schedule: Q01DX009 (ip), vehicle: Klucel (hydroxypropylcellulose) (HPC)
[13] = dose: 200.0 mg/kg/injection, schedule: Q01DX009 (ip), vehicle: Klucel (hydroxypropylcellulose) (HPC)
[14] = dose: 400.0 mg/kg/injection, schedule: Q04DX003 (ip), vehicle: Klucel (hydroxypropylcellulose) (HPC)
[15] = dose: 100.0 mg/kg/injection, schedule: Q01DX001 (ip), vehicle: Klucel (hydroxypropylcellulose) (HPC)
[16] = dose: 200.0 mg/kg/injection, schedule: Q01DX001 (ip), vehicle: Klucel (hydroxypropylcellulose) (HPC)
[17] = dose: 400.0 mg/kg/injection, schedule: Q01DX001 (ip), vehicle: Klucel (hydroxypropylcellulose) (HPC)
[18] = dose: 400.0 mg/kg/injection, schedule: Q01DX009 (ip), vehicle: Klucel (hydroxypropylcellulose) (HPC)

## N#CN1CCOCC1
dose: 44.0 mg/kg/injection, schedule: Q01DX Z (ip), vehicle: saline
  T/C: 101 % of control
dose: 66.0 mg/kg/injection, schedule: Q01DX Z (ip), vehicle: saline
  T/C: 91 % of control
[1]
  T/C: 97 % of control
dose: 100.0 mg/kg/injection, schedule: Q01DX Z (ip), vehicle: saline
  T/C: 101 % of control
[2]
  T/C: 95 % of control
dose: 200.0 mg/kg/injection, schedule: Q01DX009 (ip), vehicle: saline
  T/C: 103 % of control
[3]
  T/C: 105 % of control

## C=CCOc1cccc(OCC=C)c1C
[4]
  T/C: 100 % of control
[5]
  T/C: 98 % of control
[6]
  T/C: 98 % of control

## CCCCCCOC(=O)Nc1cccc2ccccc12
dose: 75.0 mg/kg/injection, schedule: Q01DX009 (ip), vehicle: saline
  T/C: 94 % of control
dose: 150.0 mg/kg/injection, schedule: Q01DX009 (ip), vehicle: saline
  T/C: 99 % of control
dose: 300.0 mg/kg/injection, schedule: Q01DX009 (ip), vehicle: saline
  T/C: 96 % of control

## O=C(O)CSC(SCC(=O)O)c1ccccc1Cl
dose: 50.0 mg/kg/injection, schedule: Q04DX003 (ip), vehicle: Klucel (hydroxypropylcellulose) (HPC)
  T/C: 96 % of control
[7]
  T/C: 100 % of control
[8]
  T/C: 96 % of control

## Clc1cccc(N=C(Oc2cccc(Cl)c2)c2ccccc2)c1
dose: 25.6 mg/kg/injection, schedule: Q04DX002 (ip), vehicle: saline with Tween-80
  T/C: 176 % of control
dose: 64.0 mg/kg/injection, schedule: Q04DX002 (ip), vehicle: saline with Tween-80
  T/C: 101 % of control
dose: 160.0 mg/kg/injection, schedule: Q04DX002 (ip), vehicle: saline with Tween-80
  T/C: 97 % of control
dose: 400.0 mg/kg/injection, schedule: Q04DX002 (ip), vehicle: saline with Tween-80
  T/C: 93 % of control

## CCOC(=O)C1CC1Cc1ccccc1 (stereo unspecified)
[9]
  T/C: 101 % of control
[2]
  T/C: 100 % of control
[10]
  T/C: 102 % of control
[3]
  T/C: 105 % of control
[11]
  T/C: 104 % of control
dose: 400.0 mg/kg/injection, schedule: Q04DX003 (ip), vehicle: saline
  T/C: 94 % of control

## C=CCNC(=S)Nc1cc(Cl)ccc1C
[12]
  T/C: 90 % of control
[7]
  T/C: 92 % of control
[13]
  T/C: 86 % of control
[8]
  T/C: 100 % of control
[14]
  T/C: 95 % of control

## CCCCOC(=O)c1ccc(OC(=O)NC(C)(C)C)cc1
dose: 25.0 mg/kg/injection, schedule: Q04DX003 (ip), vehicle: gum acacia
  T/C: 102 % of control and 90 % of control
dose: 50.0 mg/kg/injection, schedule: Q04DX003 (ip), vehicle: gum acacia
  T/C: 94 % of control and 102 % of control
dose: 100.0 mg/kg/injection, schedule: Q01DX001 (ip), vehicle: gum acacia
  T/C: 105 % of control
dose: 100.0 mg/kg/injection, schedule: Q04DX003 (ip), vehicle: gum acacia
  T/C: 98 % of control and 100 % of control
dose: 200.0 mg/kg/injection, schedule: Q01DX001 (ip), vehicle: gum acacia
  T/C: 95 % of control
dose: 400.0 mg/kg/injection, schedule: Q01DX001 (ip), vehicle: gum acacia
  T/C: 103 % of control

## CN(C)c1c(Cl)cc([N+](=O)[O-])cc1Cl
[15]
  T/C: 97 % of control
[16]
  T/C: 95 % of control
[17]
  T/C: 94 % of control

## Cc1ccc(S(=O)(=O)N/N=C/c2ccc([N+](=O)[O-])s2)cc1
[7]
  T/C: 96 % of control
[8]
  T/C: 94 % of control
[14]
  T/C: 96 % of control

## Nc1ccc(S(=O)(=O)S(=O)(=O)c2ccc(N)cc2)cc1
[4]
  T/C: 93 % of control
[5]
  T/C: 86 % of control
[6]
  T/C: 91 % of control

## CN(C=O)c1cccc(C(=O)O)c1
[15]
  T/C: 96 % of control
[7]
  T/C: 103 % of control
[16]
  T/C: 94 % of control
[8]
  T/C: 103 % of control
[17]
  T/C: 91 % of control
[14]
  T/C: 97 % of control

## ClC(Cl)(Cl)c1cc(C(Cl)(Cl)Cl)nc(NCCCN2CCCC2)n1
[9]
  T/C: 99 % of control
[10]
  T/C: 96 % of control
[11]
  T/C: 95 % of control

## Cc1ccc(COc2ccc(Cl)cc2Cn2ccnc2)cc1
[1]
  T/C: 102 % of control

## NC(N)=NS(=O)(=O)c1ccc(N)cc1
[9]
  T/C: 98 % of control
[10]
  T/C: 95 % of control
[11]
  T/C: 91 % of control

## Cc1ncc(Br)c(C(=O)O)n1
dose: 50.0 mg/kg/injection, schedule: Q01DX001 (ip), vehicle: saline
  T/C: 101 % of control
dose: 100.0 mg/kg/injection, schedule: Q01DX001 (ip), vehicle: saline
  T/C: 98 % of control
[12]
  T/C: 106 % of control
dose: 200.0 mg/kg/injection, schedule: Q01DX001 (ip), vehicle: saline
  T/C: 95 % of control
[13]
  T/C: 113 % of control
dose: 400.0 mg/kg/injection, schedule: Q01DX001 (ip), vehicle: saline
  T/C: 90 % of control
[18]
  T/C: 110 % of control

## SC(S)(Cc1ccccc1)Cc1ccccc1
dose: 100.0 mg/kg/injection, schedule: Q04DX002 (ip), vehicle: saline
  T/C: 100 % of control
dose: 200.0 mg/kg/injection, schedule: Q04DX002 (ip), vehicle: saline
  T/C: 100 % of control
dose: 400.0 mg/kg/injection, schedule: Q04DX002 (ip), vehicle: saline
  T/C: 94 % of control

## CC(=O)/C(C)=N\NC(=O)c1ccccn1
dose: 25.0 mg/kg/injection, schedule: Q01DX015 (ip), vehicle: water
  T/C: 119 % of control
dose: 50.0 mg/kg/injection, schedule: Q01DX001 (ip), vehicle: water
  T/C: 108 % of control
dose: 50.0 mg/kg/injection, schedule: Q01DX015 (ip), vehicle: water
  T/C: 108 % of control
dose: 100.0 mg/kg/injection, schedule: Q01DX001 (ip), vehicle: water
  T/C: 121 % of control
dose: 100.0 mg/kg/injection, schedule: Q01DX015 (ip), vehicle: water
  T/C: 119 % of control
dose: 200.0 mg/kg/injection, schedule: Q01DX001 (ip), vehicle: water
  T/C: 108 % of control

## O=C(c1ccccc1)c1cc(-c2ccccc2)n(C2CCCCC2)c1
dose: 25.0 mg/kg/injection, schedule: Q01DX009 (ip), vehicle: saline with Tween-80
  T/C: 96 % of control and 120 % of control
dose: 50.0 mg/kg/injection, schedule: Q01DX009 (ip), vehicle: saline with Tween-80
  T/C: 94 % of control and 95 % of control and 98 % of control
[10]
  T/C: 91 % of control and 92 % of control

## Nc1nc2c(ncn2-c2ccc(OCCCOc3ccc(S(=O)(=O)F)cc3)cc2)c(=O)[nH]1
[15]
  T/C: 94 % of control
[16]
  T/C: 91 % of control

## COc1ccc2c(c1Oc1ccc([N+](=O)[O-])cc1[N+](=O)[O-])C13CCN(C)C(C2)C1CCC1(C3)OCCO1 (stereo unspecified)
dose: 12.5 mg/kg/injection, schedule: Q01DX009 (ip), vehicle: Klucel (hydroxypropylcellulose) (HPC)
  T/C: 98 % of control
dose: 25.0 mg/kg/injection, schedule: Q01DX009 (ip), vehicle: Klucel (hydroxypropylcellulose) (HPC)
  T/C: 121 % of control
dose: 50.0 mg/kg/injection, schedule: Q01DX009 (ip), vehicle: Klucel (hydroxypropylcellulose) (HPC)
  T/C: 101 % of control
[12]
  T/C: 102 % of control
[13]
  T/C: 102 % of control
[18]
  T/C: 88 % of control
